For 1 compound, inhibition and IC50 results are on record in patent US20060111368A1, “Phosphodiesterase inhibitor” (Kyowa Hakko Kogyo Co., Ltd., priority 2002, published 2006).

Where a name gives a salt, the structure may show the parent alone.

One assay addresses T1, PDE10A (Homo sapiens, UniProt Q9Y233).
T1 construct: made in house; host or cells: Sf9 insect cells (baculovirus, pVL1393)
As to the kind of experiment: Activity of inhibiting PDE10A activity ([3H]cAMP decomposition inhibiting test). Type of assay: biochemical. The conditions noted are these: substrate [3H]cAMP 0.2 μmol/L. The method, then: Activity of Inhibiting PDE10A Activity (^3H]cAMP Decomposition Inhibiting Test)
PCR was performed using DNAs having base sequences described in SEQ ID NO. 1 and SEQ ID NO. 2 as primers and human kidney cDNA as a template to prepare a plasmid containing amplified fragments. The plasmid was cleaved with restriction endonucleases Pst I and Xba I to obtain a Pst I-Xba I fragment of 0.7 kb.
Meanwhile, Est clone (Cosmo Bio, Tokyo) of GenBank, ACCESSION WO 4835 was cleaved with restriction endonucleases Kpn I and Pst I to obtain a Kpn I-Pst I fragment of 1.5 kb.
The resulting Pst I-Xba I fragment of 0.7 kb and Kpn I-Pst I fragment of 1.5 kb were subcloned in a Kpn I-Xba I site of pBluescript II KS(−) (STRATAGENE, La Jolla, Calif., USA),to construct a plasmid having a cDNA fragment completely including a catalyst region of PDE10A. Subsequently, the plasmid was cleaved with restriction endonucleases Kpn I and Not I to obtain a Kpn I-Not I fragment of 2.2 kb.
The resulting Kpn I-Not I fragment of 2.2 kb and a linker having a BamH I-Kpn I cleavage surface prepared by synthetic DNA having base sequences described in SEQ ID NOS. 3 and 4 were subcloned in a BamH I-Not I site of pVL1393 (PharMingen, San Diego, Calif., USA) to obtain a plasmid for preparation of Baculovirus. The plasmid contains a DNA encoding a peptide in which methionine, FLAG tag and a peptide having a 64th to 779th amino acid sequence of PDE10A [GenBank, ACCESSION NP 006652: Gene, vol. 234, p. 109 (1999), J. Biol. Chem., vol. 274, p. 18438 (1999)] are bound in the order.
The above gene recombinational manipulation was performed according to the method described in Molecular Cloning, 2nd edition, Cold Spring Harbor Laboratory Press, New York (1989).
The expression of PDE10A was conducted according to the Baculovirus expression vector system manual (PharMingen) using insect cells. As insect cells, Sf9 cells (Asahi Technoglass, Tokyo) were used. Sf9 cells were infected with a supernatant (co-transfection sup) containing PDE10A expression virus prepared according to the manual, and cultured at 27° C. for 4 days. The cells were recovered, washed with a phosphate-buffered saline (PBS), and then suspended in an extraction solution [20 mmol/L Tris-acetate (pH 7.5), 2 mmol/L MgCl2, 1 mmol/L dithiothreitol, 1 mmol/L ethylenediaminetetraacetic acid (EDTA), 0.25 mol/L sucrose, 250 unit/mL aprotinin, 40 μg/mL phenylmethylsulfonyl fluoride, and 1 μg/mL pepstatin A]. The cells were disrupted in ice with the maximum output under conditions of 5 seconds and five times using an ultrasonic disruption machine (TOMY model UR-200R, TOMY, Tokyo). A soluble fraction was obtained by centrifugation under 10,000 rpm of the fraction at 4° C. for 30 minutes, and the resulting soluble fraction was used for measuring the PDE activity.
The PDE activity was measured according to the method described in Methods Enzymol., vol. 159, p. 457 (1988).
Using [^3H]cAMP as a substrate, an enzyme reaction was conducted in a reaction solution containing 300 μL of 50 mmol/L N,N-bis (2-hydroxyethyl)-2-aminoethanesulfonic acid (pH 7.2), 1 mmol/L MgCl2 and 0.1 mmol/L ethylene glycol-bis (β-aminoethyl ether)-N,N,N′,N′-tetraacetic acid: EGTA). The concentration of the substrate was 0.2 μmol/L. To 95 μL of an enzyme dilute solution were added 5 μL of a test compound (DMSO solution) and 200 μL of a substrate solution. The mixture was incubated at 30° C. for 20 minutes, and then HCl was added to stop the reaction. The reaction product (5′-AMP) was converted to adenosine using 5′-nucleotidase, and separated the unreacted product from the reactant by DEAE-Sephadex A-25 column (Amersham Pharmacia Biotech, Uppsala, Sweden). The elute was moved to scintillation vials, 6 mL of Ultima Gold (Packard Instrument, Meriden, Conn., USA) was added, and the radioactivity was measured for 2 minutes using a liquid scintillation counter (Beckman LS6500, Beckman, Tokyo),. […]

For assay [1], the system named is MDA-MB-231 (human breast cancer cell). As to the kind of experiment: Cell growth inhibitory activity (MTT-type colorimetric assay). Type of assay: cell-based. As to conditions: MDA-MB-231, 72 h, 10 μmol/L, 3 days of culture. The procedure:
Cell Growth Inhibitory Activity
Cell growth inhibitory activity of compound 12 was examined on MDA-MB-231 (human breast cancer cell: American Type Culture Collection) using an in-vitro cell growth assay [3-(4,5-dimethylthiazol-2-yl)-2,5-diphenyl tetrazolium bromide (MTT)]-type calorimetric assay [Leukemia, vol. 7, p. 1637, (1993)].
MDA-MB-231 (2.5×10^4 cells/mL, 270 μL) was inoculated on a 48-well plate, and cultured overnight. In the culture, Leibovitz's L-15 (Gibco) containing. 10% fetal calf serum (Hi-Clone), 0.05 units/mL of penicillin (Gibco) and 0.05 μg/mL of streptomycin (Gibco) was used as a culture medium. 30 μL of compound 12 dissolved in the same medium containing 0.1% dimethyl sulfoxide (DMSO; Wako Pure Chemical Industries) was added to each well. After 3 days of culture, 30 μL of MTT (Dojin Kagaku Kenkyusho, adjusted to a concentration of 5 mg/mL with PBS) was added to each well. After 4 hours of culture, 900 μL of DMSO was added to dissolve the cells. The cell solution was moved to a 96-well plate in amounts of 200 μL each, and fluorescence intensity OD590-630was measured with an automated microplate reader EL340 (Biotech Instruments). […] (medium containing 0.1% DMSO alone was added) and OD (blank) is fluorescence intensity (OD590-630) of the same medium containing 0.1% DMSO. […]
For orientation: Tetrazolium dyes change colour on reduction, which living cells bring about.

T1 sequence (Q9Y233 340-1055): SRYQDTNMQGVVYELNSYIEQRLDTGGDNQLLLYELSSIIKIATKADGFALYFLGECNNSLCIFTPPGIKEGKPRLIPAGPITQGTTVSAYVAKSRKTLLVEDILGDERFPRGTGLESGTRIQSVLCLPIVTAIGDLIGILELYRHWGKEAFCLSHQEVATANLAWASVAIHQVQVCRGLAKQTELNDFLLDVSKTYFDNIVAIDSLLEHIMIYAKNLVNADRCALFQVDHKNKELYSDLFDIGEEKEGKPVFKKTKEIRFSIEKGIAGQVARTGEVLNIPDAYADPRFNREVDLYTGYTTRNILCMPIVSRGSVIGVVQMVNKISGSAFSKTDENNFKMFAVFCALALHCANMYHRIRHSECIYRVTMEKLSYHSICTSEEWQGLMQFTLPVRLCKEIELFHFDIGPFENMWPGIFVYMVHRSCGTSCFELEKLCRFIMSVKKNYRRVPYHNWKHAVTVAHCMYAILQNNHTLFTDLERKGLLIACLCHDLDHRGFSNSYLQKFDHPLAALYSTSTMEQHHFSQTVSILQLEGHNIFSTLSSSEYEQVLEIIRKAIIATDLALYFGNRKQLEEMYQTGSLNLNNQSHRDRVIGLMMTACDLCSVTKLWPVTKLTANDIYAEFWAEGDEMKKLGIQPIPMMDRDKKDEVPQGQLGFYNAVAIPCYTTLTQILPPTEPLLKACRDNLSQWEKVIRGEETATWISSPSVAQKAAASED

In general, inhibition refers to the share of the control response that was lost under treatment. On to `Cc1c(-c2ccc(-c3ccccc3CN3CCOCC3)cc2)nc2ccc(F)cc2c1CO` [Compound 12, 6-Fluoro-4-hydroxymethyl-3-methyl-2-(2′-morpholinomethylbiphenyl-4-yl)quinoline dihydrochloride], for which, on PDE10A (Test compound concentration 1 μmol/L, read-out: [3H] cAMP decomposition inhibition rate (%)), the inhibition at 1 µM worked out at 96%. The IC50 on PDE10A (read-out: IC50 (concentration at which to inhibit [3H]cAMP decomposition by 50%)) was found to be 68 nM. The same compound registered an inhibition at 10 µM in assay [1] of 39%.
